Consider 16 compounds from PubChem BioAssay (NCI).

Values joined by “and” are separate entries in the source; they are usually repeats but may differ in a detail not shown here. Identical values can stand only once.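 Step 1: Grow cells in 96-well plates. Step 2: Expose to compound for 48 hours at 5 concentrations. Step 3: Interpolate endpoints linearly; if unreached, use highest concentration. GI50: concentration for 50% inhibition of growth. The concentration for full growth arrest is given as TGI.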 Where only a bound is given, the exact number is not on record here.

The first assay deals with SNB-19 CNS. The experiment in a line: inhibition of tumour cell growth, NCI panel, 48 h.
With `Clc1ccc2c(c1)N(c1ncnc3ccc(-c4cnc5[nH]ncc5c4)cc13)CC2`, the GI50 was 1.46 µM and the TGI was above 100 µM.
The matching figures for `COc1ccc(-c2cnoc2-c2cc(OC)c3c(c2)OCCO3)cc1`: 0.0525 µM and above 100 µM.
In the same order, the values of `CC(C)Oc1ccc(C(=O)Cn2ccnc2)cc1-n1c(CN2CCN(C(=O)COc3ccc(Cl)cc3)CC2)nc2ccccc2c1=O` are 29.6 µM and above 100 µM.
In the same order, the values of `COc1cccc(COc2cc(-n3cnc4ccccc43)sc2C(N)=O)c1` are 14.4 µM and above 25 µM.
`CCN(CC)c1ccc(/C=C/C2=[N+](C)c3ccccc3C2(C)C)c(C)c1`: the GI50 is 0.0684 µM and the TGI came out at 9.36 µM.
In the same order, the values of `Fc1ccc2nc(-c3cc(-c4ccc5c(c4)OCO5)n[nH]3)[nH]c2c1` are above 32.5 µM and above 100 µM.
The matching figures for `COC(=O)c1ccc2c(c1)C(=O)c1c-2n(CCCN=[N+]=[N-])c(=O)c2cc([N+](=O)[O-])ccc12`: 47.4 µM and above 100 µM.
In the same order, the values of `O=C(c1cccs1)C1NO[N+]([O-])=C1c1cccs1` (configuration not stated) are 29.9 µM and above 79.2 µM.
`COc1c(O)c(OC)c2oc(-c3ccc(O)cc3)c(OC)c(=O)c2c1O` returned a TGI above 100 µM.
Take `COc1ccc(C2=C(N3CCc4ccccc43)C(=O)NC2=O)cc1`: the GI50 is above 25 µM and the TGI was above 25 µM.
Turning to `Cc1cc2c(cc1Cl)S/C(=C/C(=O)O)C(Nc1cccc3nsnc13)=NS2(=O)=O`, the GI50 is above 52 µM and the TGI is above 66.8 µM.
For `COc1ccc(F)c(F)c1C(=O)c1cnc(NC2CCN(S(C)(=O)=O)CC2)nc1N`, the GI50 was 0.576 µM and 0.445 µM; the TGI is above 100 µM.
For `Nc1cc(-c2ccc(Cl)cc2)nn1-c1nnc(/C=C/c2ccco2)c(=O)[nH]1`, the GI50 was 5.11 µM and the TGI was above 83.3 µM.
Compound `Cc1c(C)c(CC(=O)N2CC2)c(C)c(C)c1CC(=O)N1CC1` returned a TGI above 100 µM.
Take `O=C1c2ccccc2-c2c1c1c(NCCCO)nc3ccccc3c1n2Cc1ccccc1`: the GI50 is 27.8 µM and the TGI came out at 73.1 µM.
As for `CCCCCCCCCCCCCCCCCCOCC(COCCOCC[N+]1(CCCCCC(=O)[O-])CCCC1)Oc1ncccn1` (configuration not stated), the TGI was determined as 16.5 µM.

A further assay relates to SF-268 CNS. The experiment in a line: inhibition of tumour cell growth, NCI panel, 48 h.
On to `Clc1ccc2c(c1)N(c1ncnc3ccc(-c4cnc5[nH]ncc5c4)cc13)CC2`, for which the GI50 is 0.538 µM and the TGI is above 100 µM.
The matching figures for `COc1ccc(-c2cnoc2-c2cc(OC)c3c(c2)OCCO3)cc1`: 0.127 µM and above 100 µM.
In the same order, the values of `CC(C)Oc1ccc(C(=O)Cn2ccnc2)cc1-n1c(CN2CCN(C(=O)COc3ccc(Cl)cc3)CC2)nc2ccccc2c1=O` are 12.9 µM and 32.9 µM.
The matching figures for `COc1cccc(COc2cc(-n3cnc4ccccc43)sc2C(N)=O)c1`: 5.88 µM and above 25 µM.
For the compound `CCN(CC)c1ccc(/C=C/C2=[N+](C)c3ccccc3C2(C)C)c(C)c1`, the GI50 was 0.1 µM and the TGI was determined as 2.11 µM.
The matching figures for `Fc1ccc2nc(-c3cc(-c4ccc5c(c4)OCO5)n[nH]3)[nH]c2c1`: 5.22 µM and above 54.9 µM.
The matching figures for `COC(=O)c1ccc2c(c1)C(=O)c1c-2n(CCCN=[N+]=[N-])c(=O)c2cc([N+](=O)[O-])ccc12`: 17.3 µM and above 100 µM.
The matching figures for `O=C(c1cccs1)C1NO[N+]([O-])=C1c1cccs1` (configuration not stated): 2.35 µM and 5.98 µM.
Turning to `COc1c(O)c(OC)c2oc(-c3ccc(O)cc3)c(OC)c(=O)c2c1O`, the TGI is 34.1 µM.
As to `COc1ccc(C2=C(N3CCc4ccccc43)C(=O)NC2=O)cc1`, the GI50 is above 25 µM and the TGI was above 25 µM.
In the case of `Cc1cc2c(cc1Cl)S/C(=C/C(=O)O)C(Nc1cccc3nsnc13)=NS2(=O)=O`, the GI50 is 49.2 µM and the TGI was above 84.4 µM.
As for `COc1ccc(F)c(F)c1C(=O)c1cnc(NC2CCN(S(C)(=O)=O)CC2)nc1N`, the GI50 was 1.14 µM and 0.527 µM; the TGI was 7.16 µM and > 7.59 µM.
As to `Nc1cc(-c2ccc(Cl)cc2)nn1-c1nnc(/C=C/c2ccco2)c(=O)[nH]1`, the GI50 is 3.37 µM and the TGI stood at 39 µM.
In turn, `Cc1c(C)c(CC(=O)N2CC2)c(C)c(C)c1CC(=O)N1CC1` gave a TGI of 23.1 µM.
Turning to `O=C1c2ccccc2-c2c1c1c(NCCCO)nc3ccccc3c1n2Cc1ccccc1`, the GI50 was 22.7 µM and the TGI is 51.9 µM.
The compound `CCCCCCCCCCCCCCCCCCOCC(COCCOCC[N+]1(CCCCCC(=O)[O-])CCCC1)Oc1ncccn1` (configuration not stated) gave a TGI of 16.5 µM.

The next assay has as its system RPMI-8226 leukemia. The experiment in a line: inhibition of tumour cell growth, NCI panel, 48 h.
Consider `Clc1ccc2c(c1)N(c1ncnc3ccc(-c4cnc5[nH]ncc5c4)cc13)CC2`, for which the GI50 was 0.759 µM and the TGI is above 100 µM.
In the same order, the values of `COc1ccc(-c2cnoc2-c2cc(OC)c3c(c2)OCCO3)cc1` are 0.0477 µM and 33 µM.
The matching figures for `CC(C)Oc1ccc(C(=O)Cn2ccnc2)cc1-n1c(CN2CCN(C(=O)COc3ccc(Cl)cc3)CC2)nc2ccccc2c1=O`: 11.5 µM and 40.4 µM.
Consider `COc1cccc(COc2cc(-n3cnc4ccccc43)sc2C(N)=O)c1`, for which the GI50 is above 25 µM and the TGI is above 25 µM.
`CCN(CC)c1ccc(/C=C/C2=[N+](C)c3ccccc3C2(C)C)c(C)c1`: the GI50 is below 0.0164 µM and the TGI came out at 0.466 µM.
In the same order, the values of `Fc1ccc2nc(-c3cc(-c4ccc5c(c4)OCO5)n[nH]3)[nH]c2c1` are 1.17 µM and 8.26 µM.
The matching figures for `COC(=O)c1ccc2c(c1)C(=O)c1c-2n(CCCN=[N+]=[N-])c(=O)c2cc([N+](=O)[O-])ccc12`: 63.3 µM and above 100 µM.
